# Measurements as given in PubChem BioAssay (NCI).
#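 Cells were grown in 96-well plates and exposed to each compound for 48 hours at five concentrations; endpoints were interpolated linearly between bracketing concentrations, or set to the highest concentration if not reached. GI50 is the concentration that inhibits growth by half. TGI: total growth inhibition.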
# Legend:
# Assay in all cases: NCI tumour cell line growth inhibition, 48 h
# T-47D breast = test system: T-47D breast
# U251 CNS = test system: U251 CNS
# 786-0 renal = test system: 786-0 renal
# SK-MEL-5 melanoma = test system: SK-MEL-5 melanoma
# SNB-19 CNS = test system: SNB-19 CNS
# IGROV1 ovarian = test system: IGROV1 ovarian
# OVCAR-8 ovarian = test system: OVCAR-8 ovarian
# SN12C renal = test system: SN12C renal
# UACC-62 melanoma = test system: UACC-62 melanoma
# A549 NSCLC = test system: A549 NSCLC
# HCT-15 colon = test system: HCT-15 colon
# RPMI-8226 leukemia = test system: RPMI-8226 leukemia
# MDA-MB-435 = test system: MDA-MB-435
# SF-268 CNS = test system: SF-268 CNS
# HCT-116 colon = test system: HCT-116 colon
# MALME-3M melanoma = test system: MALME-3M melanoma
# MCF7 breast = test system: MCF7 breast
# NCI-H522 lung = test system: NCI-H522 lung
# SF-539 CNS = test system: SF-539 CNS
# OVCAR-4 ovarian = test system: OVCAR-4 ovarian
# HS 578T breast = test system: HS 578T breast
# OVCAR-5 ovarian = test system: OVCAR-5 ovarian
# A498 renal = test system: A498 renal
# COLO 205 colon = test system: COLO 205 colon
# SNB-75 CNS = test system: SNB-75 CNS
# KM12 colon = test system: KM12 colon
# TK-10 renal = test system: TK-10 renal
# HOP-92 NSCLC = test system: HOP-92 NSCLC
smiles,measurement,setting,value
COc1cc(OC)c(S(=O)(=O)N(CCCl)CCCl)cc1C(=O)/C=C/c1cc(OC)c(OC)c(OC)c1,GI50,T-47D breast,3.53 µM
same,TGI,T-47D breast,> 100 µM
same,GI50,U251 CNS,1.78 µM
same,TGI,U251 CNS,3.68 µM
same,GI50,786-0 renal,1.95 µM
same,TGI,786-0 renal,5.66 µM
same,GI50,SK-MEL-5 melanoma,1.84 µM
same,TGI,SK-MEL-5 melanoma,3.64 µM
same,GI50,SNB-19 CNS,2.37 µM
same,TGI,SNB-19 CNS,5.71 µM
same,GI50,IGROV1 ovarian,3.09 µM
same,TGI,IGROV1 ovarian,9.05 µM
same,GI50,OVCAR-8 ovarian,4.06 µM
same,TGI,OVCAR-8 ovarian,> 100 µM
same,GI50,SN12C renal,2.26 µM
same,TGI,SN12C renal,13 µM
same,GI50,UACC-62 melanoma,2.1 µM
same,TGI,UACC-62 melanoma,4.94 µM
same,GI50,A549 NSCLC,3.11 µM
same,TGI,A549 NSCLC,> 100 µM
same,GI50,HCT-15 colon,1.12 µM
same,TGI,HCT-15 colon,3.98 µM
same,GI50,RPMI-8226 leukemia,2.52 µM
same,TGI,RPMI-8226 leukemia,> 100 µM
same,GI50,MDA-MB-435,2.53 µM
same,TGI,MDA-MB-435,7.51 µM
same,GI50,SF-268 CNS,2.62 µM
same,TGI,SF-268 CNS,7.7 µM
same,GI50,HCT-116 colon,1.23 µM
same,TGI,HCT-116 colon,2.82 µM
same,GI50,MALME-3M melanoma,2.48 µM
same,TGI,MALME-3M melanoma,7.18 µM
same,GI50,MCF7 breast,1.01 µM
same,TGI,MCF7 breast,4.36 µM
same,GI50,NCI-H522 lung,1.66 µM
same,TGI,NCI-H522 lung,3.78 µM
same,GI50,SF-539 CNS,1.73 µM
same,TGI,SF-539 CNS,3.61 µM
same,GI50,OVCAR-4 ovarian,2.78 µM
same,TGI,OVCAR-4 ovarian,> 100 µM
same,GI50,HS 578T breast,8.55 µM
same,TGI,HS 578T breast,> 100 µM
same,GI50,OVCAR-5 ovarian,2.51 µM
same,TGI,OVCAR-5 ovarian,6.8 µM
same,GI50,A498 renal,2.79 µM
same,TGI,A498 renal,7.23 µM
same,GI50,COLO 205 colon,2.37 µM
same,TGI,COLO 205 colon,4.46 µM
same,GI50,SNB-75 CNS,2.56 µM
same,TGI,SNB-75 CNS,8.53 µM
same,GI50,KM12 colon,1.93 µM
same,TGI,KM12 colon,4.26 µM
same,GI50,TK-10 renal,6.09 µM
same,TGI,TK-10 renal,75 µM
same,GI50,HOP-92 NSCLC,> 100 µM
same,TGI,HOP-92 NSCLC,> 100 µM
